US9526785B2, “Pharmaceuticals for oral delivery” (Enteris BioPharma, Inc., priority 2013, dated 2016)
Values joined by “and” are separate entries in the source; they are usually repeats but may differ in a detail not shown here. Identical values can stand only once. “Also recorded” adds a separate entry of the source. Like-named read-outs stand apart in the source and are kept apart here.

Assay: Tigecycline plasma PK and % F after PO enteric-coated capsule in dogs
Assay type: in vivo, Beagle dogs
Details: for bioavailability / AUC(0-t) / Cmax / Tmax / concentration at 0 min / concentration at 15 min / concentration at 30 min / concentration at 45 min: female, beagle, dog, plasma, po, 15 mg; for Tmax: read-out: Tmax (converted); for concentration at 0 min / concentration at 15 min / concentration at 30 min / concentration at 45 min: Tigecycline Plasma Concentration
Procedure: Adult beagle dogs weighing approximately 9 to 15 kg were used in the study. […] Room temperature was set to be maintained between approximately 20±5° C. Relative humidity was monitored but not controlled.
TEKLAD™ Certified Canine Diet was provided once daily in amounts (˜400 grams) appropriate for the size and age of the animals. Tap water was available ad libitum via automatic watering device or water bowls.
Oral dosing of enteric-coated capsules was accomplished by administering them to the back of the dog's mouth, followed by a chase of 5 mL water to ensure swallowing.
Water was provided ad libitum. […] Subsequently, each group of animals was dosed based on the protocol, i.e. either IV, or PO by capsule.
Minocycline (VWR international) was used as an internal standard. Sample processing/clean-up of plasma samples was carried out offline by protein precipitation with acidified acetonitrile using 0.5% trifluoroacetic acid (TFA).
The HPLC system consisted of Shimadzu SIL-HTc HPLC system equipped with dual Shimadzu LC-10ADvp isopumps, a Shimadzu CTO-10ASvp column temperature controller and a Shimadzu SPD-10Avp variable wavelength detector. […] Mobile phase A consisted of 23 mM phosphate buffer pH 2.5 with 4 mM 1-octanesulfonic acid, while mobile phase B consisting of 90% acetonitrile, 10% water, with 2 mM 1-octanesulfonic acid. […] The total runtime was 18 minutes per sample. The mobile phase flow rate was 1.2 mL/min. Detection was performed using the SPD-10Avp variable wavelength detector set at 350 nm, with a sensitivity of 0.001 aufs.
The samples were then centrifuged under refrigeration at 13 k rpm for 5 minutes. The supernatant was taken and the liquid removed to dryness under nitrogen in a turbovap. The dried extract was reconstituted in 60 μL of mobile phase A and the suspension was further centrifuged at 5 k rpm for 5 minutes to pellet any insoluble matter. The resulting supernatant was then injected onto the LC.
The unknown concentration in dog plasma samples was determined by interpolation of the peak area ratios of analyte:internal standard versus the ratio of their nominal concentrations into the regression line obtained from calibration standards spiked in pooled dog plasma. No regression weighting was used for the calculations. […] The calibration curve covered the range of 0.05 μg/mL to 5 μg/mL. […]
The capsules were enterically coated using a standard preclinical protocol to 10% weight gain. Two studies were conducted.

[1] = 15 min, PO 15 mg unformulated enteric-coated capsule, SC424, individual dogs
[2] = 30 min, PO 15 mg unformulated enteric-coated capsule, SC424, individual dogs
[3] = 45 min, PO 15 mg unformulated enteric-coated capsule, SC424, individual dogs

SMILES: CN(C)c1cc(NC(=O)CNC(C)(C)C)c(O)c2c1C[C@H]1C[C@H]3[C@H](N(C)C)C(O)=C(C(N)=O)C(=O)[C@@]3(O)C(O)=C1C2=O [Tigecycline]
- Tigecycline Plasma Concentration [1]: 0.00 ng/mL
- Tigecycline Plasma Concentration [2]: 0.00 ng/mL
- Tigecycline Plasma Concentration [3]: 0.00 ng/mL
- Tigecycline Plasma Concentration (60 min, PO 15 mg unformulated enteric-coated capsule, SC424, individual dogs): 0.00 ng/mL
- Tigecycline Plasma Concentration (75 min, PO 15 mg unformulated enteric-coated capsule, SC424, individual dogs): 0.00 ng/mL
- Tigecycline Plasma Concentration (90 min, PO 15 mg unformulated enteric-coated capsule, SC424, individual dogs): 0.00 ng/mL
- Tigecycline Plasma Concentration (120 min, PO 15 mg unformulated enteric-coated capsule, SC424, individual dogs): 0.00 ng/mL
- Tigecycline Plasma Concentration (150 min, PO 15 mg unformulated enteric-coated capsule, SC424, individual dogs): 0.00 ng/mL
- % F (PO 15 mg enteric-coated capsule with 500 mg CA and 100 mg LLC, SC424, calculated from IV data of SC427, individual dogs): 13.6% and 3.9% and 30.3% and 17.0% and 2.0% and 8.3% and 12.0% and 10.6%
- plasma exposure (PO 15 mg unformulated (microcrystalline cellulose filler) enteric-coated capsule (SC424)): No tigecycline exposure was observed; also recorded: did not result in observable plasma exposure
- % F (PO 30 mg enteric-coated capsule with 500 mg CA and 100 mg LLC, SC430, calculated from IV PK data of SC431, individual dogs): 7.9% and 23.3% and 12.8% and 2.6%
- plasma exposure (PO 30 mg unformulated (microcrystalline cellulose filler) enteric-coated capsule (SC430)): No tigecycline exposure was observed; also recorded: did not result in observable plasma exposure
- % F (PO 45 mg enteric-coated capsule with 500 mg CA and 100 mg LLC, SC430, calculated from IV PK data of SC431, individual dogs): 18.4% and 6.3% and 6.4% and 14.8% and 31.8%
- bioavailability (15 mg Formulated (500 mg CA, 100 mg LLC) enteric coated capsule, Study 1 (SC424), mean (% CV), read-out: % F): 12.2%
- AUC(0-t) (15 mg Formulated (500 mg CA, 100 mg LLC) enteric coated capsule, Study 1 (SC424), mean (% CV), read-out: AUC(0-t)): 133 ng·h/mL
- Cmax (15 mg Formulated (500 mg CA, 100 mg LLC) enteric coated capsule, Study 1 (SC424), mean (% CV), read-out: Cmax): 75.5 ng/mL
- Tmax (15 mg Formulated (500 mg CA, 100 mg LLC) enteric coated capsule, Study 1 (SC424), mean (% CV)): 1.85 h
- bioavailability (15 mg Unformulated enteric coated capsule, Study 1 (SC424), read-out: % F): 0%
- AUC(0-t) (PO 15 mg ([…]) enteric-coated capsule with 500 mg CA and 100 mg LLC (SC424), read-out: AUC(0-t), mean): 133 ng·h/mL
- Cmax (PO 15 mg ([…]) enteric-coated capsule with 500 mg CA and 100 mg LLC (SC424), read-out: Cmax, mean): 75.5 ng/mL
- bioavailability (PO 15 mg ([…]) enteric-coated capsule with 500 mg CA and 100 mg LLC (SC424), read-out: absolute % F, mean): 12.2%
- bioavailability (PO 15 mg enteric-coated capsule with 500 mg CA and 100 mg LLC (SC424), read-out: % F, range of individual dogs): 2 to 30%
- AUC(0-t) (PO 15 mg enteric-coated capsule with 500 mg CA and 100 mg LLC ([…]), SC424, mean, read-out: AUC(0-t)): 133 ng·h/mL
- Cmax (PO 15 mg enteric-coated capsule with 500 mg CA and 100 mg LLC ([…]), SC424, mean, read-out: Cmax): 75.5 ng/mL
- Tmax (PO 15 mg enteric-coated capsule with 500 mg CA and 100 mg LLC ([…]), SC424, mean): 1.85 h
- bioavailability (PO 15 mg enteric-coated capsule with 500 mg CA and 100 mg LLC, SC424, calculated from IV data of SC427, mean, read-out: % F): 12.2%
- bioavailability (PO 15 mg unformulated enteric-coated capsule ([…]), SC424, individual dogs, read-out: % F): 0%
- bioavailability (PO 15 mg unformulated enteric-coated capsule ([…]), SC424, mean, read-out: % F): 0%
- bioavailability (Study 1 (SC424), 15 mg Formulated enteric coated capsule (500 mg citric acid, 100 mg LLC), oral, dogs, N=8, mean (% CV), based on that study's IV arm, read-out: % F): 12.2%
- Tmax (Study 1 (SC424), 15 mg Formulated enteric coated capsule (500 mg citric acid, 100 mg LLC), oral, dogs, N=8, mean (% CV)): 1.85 h
- AUC(0-t) (Study 1 (SC424), 15 mg Formulated enteric coated capsule (500 mg citric acid, 100 mg LLC), oral, dogs, N=8, mean (% CV), sampling 4 h, read-out: AUC(0-t)): 133 ng·h/mL
- Cmax (Study 1 (SC424), 15 mg Formulated enteric coated capsule (500 mg citric acid, 100 mg LLC), oral, dogs, N=8, mean (% CV), sampling 4 h, read-out: Cmax): 75.5 ng/mL
- bioavailability (Study 1 (SC424), 15 mg Unformulated enteric coated capsule (microcrystalline cellulose filler), oral, dogs, N=8, based on that study's IV arm, read-out: % F): 0%
- concentration at 0 min (PO 15 mg enteric-coated capsule with 500 mg CA and 100 mg LLC, SC424, individual dogs): 0 ng/mL
- concentration at 0 min (PO 15 mg enteric-coated capsule with 500 mg CA and 100 mg LLC, SC424, mean): 0 ng/mL
- concentration at 15 min (15 min, PO 15 mg enteric-coated capsule with 500 mg CA and 100 mg LLC, SC424, individual dogs): 0 ng/mL
- concentration at 15 min (15 min, PO 15 mg enteric-coated capsule with 500 mg CA and 100 mg LLC, SC424, mean): 0 ng/mL
- concentration at 15 min [1]: 0 ng/mL
- concentration at 15 min (15 min, PO 15 mg unformulated enteric-coated capsule, SC424, mean): 0 ng/mL
- concentration at 30 min (30 min, PO 15 mg enteric-coated capsule with 500 mg CA and 100 mg LLC, SC424, individual dogs): 0 ng/mL
- concentration at 30 min (30 min, PO 15 mg enteric-coated capsule with 500 mg CA and 100 mg LLC, SC424, mean): 0 ng/mL
- concentration at 30 min [2]: 0 ng/mL
- concentration at 30 min (30 min, PO 15 mg unformulated enteric-coated capsule, SC424, mean): 0 ng/mL
- concentration at 45 min (45 min, PO 15 mg enteric-coated capsule with 500 mg CA and 100 mg LLC, SC424, mean): 8.45 ng/mL
- concentration at 45 min [3]: 0 ng/mL
- concentration at 45 min (45 min, PO 15 mg unformulated enteric-coated capsule, SC424, mean): 0 ng/mL
